Measured values reported in patent US10613105B2, “Competitive immunoassay test system for detecting a pyrogen” (FRAUNHOFER-GESELLSCHAFT ZUR FORDERUNG DER ANGEWANDTEN …, priority 2014, dated 2020).

Target: T1, TLR4 (Homo sapiens, UniProt O00206)
T1 construct: purchased Hölzel Diagnostik GmbH 10146-H08B-100; host or cells: baculovirus insect cells
Assay: Surface plasmon resonance spectroscopy (Biacore T200), TLR4 immobilized on NTA sensor chip via his-tag
Type: binding
Details: for Ka in 1/M / Kd: HBS-P+ with 50 μM EDTA, 20° C., 10 μL/min, 5 concentrations
Description: The affinity of a ligand to its receptor describes the tendency thereof to enter into a bond with the receptor. The greater affinity, the greater the association constant Ka is. The strength of the receptor/ligand interaction can be determined experimentally with the aid of surface plasmon resonance spectroscopy (Biacore T200, GE Healthcare) and quantified by the so-called dissociation constant (Kd). Kd is thereby the reciprocal value of Ka, a thermodynamic value, which indicates which portion of the ligand is bound on average to the receptor protein and has the dimension of a concentration. The Biacore chip system is based on a glass slide with a gold film in a flow cell. TLR4 was immobilized on the NTA sensor chip via its his-tag in accordance with the manufacturer's protocol and the to-be-tested ligands, control compounds and LPS were passed over it dissolved in HBS-P+ with 50 μM EDTA at 20° C. with a flow rate of 10 μL/min in respectively 5 concentrations. The bond with TLR4 is measured as a change in the refractive index in the flow cell as compared to a reference cell as a response difference in RU. 1 RU corresponds thereby to 1 pg of bound ligand. After ligand injection, buffer is used for rinsing in order to ideally recreate the initial state, complete disassociation of the ligand.

T1 sequence (O00206 24-631 limits assumed): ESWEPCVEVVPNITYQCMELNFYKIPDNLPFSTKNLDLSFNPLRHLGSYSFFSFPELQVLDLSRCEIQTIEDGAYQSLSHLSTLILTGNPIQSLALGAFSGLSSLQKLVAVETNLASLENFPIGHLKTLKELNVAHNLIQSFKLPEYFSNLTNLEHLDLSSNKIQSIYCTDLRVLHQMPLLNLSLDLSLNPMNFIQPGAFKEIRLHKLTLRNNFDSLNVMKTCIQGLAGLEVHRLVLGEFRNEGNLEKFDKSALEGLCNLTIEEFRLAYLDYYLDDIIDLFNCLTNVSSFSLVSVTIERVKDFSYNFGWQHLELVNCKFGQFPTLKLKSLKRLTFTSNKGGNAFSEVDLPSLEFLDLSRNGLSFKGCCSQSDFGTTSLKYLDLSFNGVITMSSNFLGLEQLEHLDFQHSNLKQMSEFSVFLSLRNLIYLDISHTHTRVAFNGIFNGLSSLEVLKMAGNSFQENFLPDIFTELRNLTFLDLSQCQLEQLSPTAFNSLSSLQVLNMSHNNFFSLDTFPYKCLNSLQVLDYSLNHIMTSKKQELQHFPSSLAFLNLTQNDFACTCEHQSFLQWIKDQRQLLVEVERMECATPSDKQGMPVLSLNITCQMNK

Row | Ka in 1/M | Kd | reduction of binding affinity for TLR4 by the TAMRA labeling (T5635346 with vs without TAMRA labeling) | Structure (SMILES)
1 | 4,135,649 1/M | 242 nM | 40 fold | Cc1ccc(C(=O)N2CCOCC2)c(O)c1 [T5635346, (2-hydroxy-4-methylphenyl)-morpholin-4-ylmethanone]
2 | 9,803,922 1/M | 102 nM | – | CC(C)CN1CCOC(CNC(=O)Nc2ccc3c(c2)OCO3)C1 (centres unmarked) [T5874283, 1-(1,3-benzodioxol-5-yl)-3-[[4-(2-methylpropyl)morpholin-2-yl]methyl]urea]
